Assay results: patent US20250059164A1, “IRAK DEGRADERS AND USES THEREOF” (Kymera Therapeutics, Inc., priority 2023, published 2025)

Molecular target: T1, IRAK4 (Homo sapiens, UniProt Q9NWZ3)
T1 construct: endogenous in cells; host or cells: OCI-LY10
T1 sequence (Q9NWZ3 1-460): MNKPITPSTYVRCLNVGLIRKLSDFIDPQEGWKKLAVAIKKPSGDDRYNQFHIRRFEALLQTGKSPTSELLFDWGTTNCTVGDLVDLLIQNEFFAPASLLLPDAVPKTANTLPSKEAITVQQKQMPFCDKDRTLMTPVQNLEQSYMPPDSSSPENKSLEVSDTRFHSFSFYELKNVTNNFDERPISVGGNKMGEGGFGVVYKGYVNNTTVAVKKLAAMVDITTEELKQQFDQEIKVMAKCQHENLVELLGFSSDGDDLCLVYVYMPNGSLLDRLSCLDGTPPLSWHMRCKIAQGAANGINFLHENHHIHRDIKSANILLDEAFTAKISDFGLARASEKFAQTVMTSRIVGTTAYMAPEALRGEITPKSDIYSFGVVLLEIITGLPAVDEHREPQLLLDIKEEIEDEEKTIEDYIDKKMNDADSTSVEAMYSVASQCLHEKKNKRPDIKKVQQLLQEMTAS
Assay: IRAK4 MSD degradation in OCI-LY10
Assay type: cell-based
Details: OCI-LY10 cells, 24 hrs, Meso Scale Discovery
Protocol: Degradation of IRAK4 in OCI-LY10 was quantitatively measured using Meso Scale Discovery technology. […] Compounds were then added to the assay plates with a final top concentration of 1 to 10 μM in a 1:3 dilution series with total of 8 doses. The assay plates were then incubated for 4 to 24 hours at 37° C. under 5% CO2. […] To prepare MSD assay plates (Meso Scale Discovery Catalog number L15XA-3), the plates were coated with 2 μg/mL capture antibody (mouse Anti-IRAK4 antibody [2H9], ab119942) in PBS, at 40 μL/well. […] Cell lysates were then added to MSD assay plates and the plates were incubated at room temperature for 1 hour. The plates were then washed 3 times with 150 μL/well TBST buffer and 25 μL/well primary detection antibody (rabbit Anti-IRAK4 antibody [Y279], from Abcam. Catalog number ab32511, 1 μg/mL). The assay plates were then incubated at room temperature for 1 hour, washed 3 times with 150 μL/well TBST buffer and 25 μL/well secondary detection antibody, SULFO-TAG anti-rabbit antibody were added (anti-rabbit antibody from Meso Scale Discovery, Catalog number R32AB-1, 1 μg/mL). The assay plates were then incubated at room temperature for 1 hour, washed 3 times with 150 μL/well TBST buffer, and 150 μL/well MSD reading buffer (Meso Scale Discovery catalog number R92TC-2) was added. The plates were then analyzed by a MSD reader (Meso Scale Discovery, Model Quick Plex SQ 120). The data was then analyzed by software Prism 7.0 from GraphPad and the dose-depended IRAK4 degradation were fit using a three-parameter logistic equation to calculate DC50.
The letter codes for IRAK4 DC50 include: A (<0.01 μM); B (0.01 to <0.1 μM); C (0.1 to 0.2 μM); D (>0.2 μM) and E (not tested).

Compound: COc1ccc2c(c1N1CC[C@H](N(C)C[C@H]3CC[C@H](n4cc(NC(=O)c5cnn6cccnc56)c(C(F)F)n4)CC3)[C@@H](F)C1)n(C)c(=O)n2C1CCC(=O)NC1=O (single isomer, unassigned) [I-146]
- DC50: < 10 nM

Compound: Cn1c(=O)n(C2CCC(=O)NC2=O)c2cccc([C@@H]3CCN(C[C@H]4CC[C@H](n5cc6cc(NC(=O)c7cccnn7)ccc6n5)CC4)C[C@H]3F)c21 (stereo partly shown) [I-164]
- DC50: 10 to 100 nM

Compound: O=C1CCC(Nc2ccc(N3CC(CO[C@@H]4CCN(C[C@H]5CC[C@H](n6cc(NC(=O)c7cnn8ccc(N9C[C@H]%10C[C@@H]9CO%10)nc78)c(C(F)F)n6)CC5)C[C@@H]4F)C3)cc2)C(=O)N1 (single isomer, unassigned) [I-73]
- DC50: 10 to 100 nM

Compound: O=C1CCC(c2ccc(N3CC(N4CCN([C@H]5CC[C@H](n6cc(NC(=O)c7cnn8ccc(N9CCCC9)nc78)c(C(F)F)n6)CC5)CC4)C3)cc2Cl)C(=O)N1 (stereo partly shown) [I-14]
- DC50: < 10 nM

Compound: Cn1c(=O)n(C2CCC(=O)NC2=O)c2cccc(C#CCN3CCN(C[C@H]4CC[C@H](n5cc(NC(=O)c6cnn7ccc(N8C[C@H]9C[C@@H]8CO9)nc67)c(C(F)F)n5)CC4)[C@@H](C(F)(F)F)C3)c21 (stereo partly shown) [I-320]
- DC50: 10 to 100 nM

Compound: COc1cc2nc([C@H]3CC[C@H](CN(C)[C@@H]4CCN(c5cccc6c5n(C)c(=O)n6C5CCC(=O)NC5=O)C[C@@H]4F)CC3)sc2cc1NC(=O)c1cccc(C(F)(F)F)n1 (single isomer, unassigned) [I-99]
- DC50: < 10 nM

Compound: CN(C[C@H]1CC[C@H](c2cn3cc(NC(=O)c4cncc(C(F)(F)F)n4)c(C(C)(C)O)cc3n2)CC1)[C@H]1CCN(c2cccc3c2n(C)c(=O)n3C2CCC(=O)NC2=O)C[C@@H]1F (single isomer, unassigned) [I-335]
- DC50: < 10 nM

Compound: Cc1nn(C2CCC(=O)NC2=O)c2cccc(N3CC(O)(CN4CCN(C[C@H]5CC[C@H](n6cc(NC(=O)c7cnn8ccc(N9C[C@H]%10C[C@@H]9CO%10)nc78)c(C(F)F)n6)CC5)CC4)C3)c12 (stereo partly shown) [I-19]
- DC50: < 10 nM

Compound: Cc1nn(C2CCC(=O)NC2=O)c2cccc(N3CC(N4CCN([C@H]5CC[C@H](n6cc(NC(=O)c7cnn8ccc(N9C[C@H]%10C[C@@H]9CO%10)nc78)c(C(F)F)n6)CC5)CC4)C3)c12 (stereo partly shown) [I-54]
- DC50: < 10 nM

Compound: COc1ccc2c(c1N1CC[C@@H](N(C)C[C@H]3CC[C@H](n4cc(NC(=O)c5cnn6cccnc56)c(C(F)F)n4)CC3)C(F)(F)C1)n(C)c(=O)n2C1CCC(=O)NC1=O (single isomer, unassigned) [I-204]
- DC50: 10 to 100 nM

Compound: O=C1CCC(Nc2cccc(N3CC(CN4CCN(C[C@H]5CC[C@H](n6cc(NC(=O)c7cnn8ccc(N9C[C@H]%10C[C@@H]9CO%10)nc78)c(C(F)F)n6)CC5)CC4)C3)c2)C(=O)N1 (stereo partly shown) [I-13]
- DC50: 10 to 100 nM

Compound: Cn1c(=O)n(C2CCC(=O)NC2=O)c2cccc(N3CCC4(CCN(C[C@H]5CC[C@H](n6cc7cc(NC(=O)c8cncc(C(F)(F)F)n8)c(C(C)(C)O)cc7n6)CC5)CC4(F)F)CC3)c21 (stereo partly shown) [I-354]
- DC50: < 10 nM

Compound: Cc1cc(C(=O)Nc2ccc3nn([C@H]4CC[C@H](CN5CCC6(CCN(c7cccc8c7n(C)c(=O)n8C7CCC(=O)NC7=O)CC6)C(F)(F)C5)CC4)cc3c2)nc(C(F)(F)F)c1 (stereo partly shown) [I-403]
- DC50: > 200 nM

Compound: COc1cc2nn([C@H]3CC[C@H](CN4CCC5(CC4)CCN(c4cccc6c4c(C)nn6C4CCC(=O)NC4=O)CC5)CC3)cc2cc1NC(=O)c1cncc(C#N)c1 (stereo partly shown) [I-49]
- DC50: 10 to 100 nM

Compound: CN(C[C@H]1CC[C@H](c2cc3cc(NC(=O)c4cncc(C(F)(F)F)n4)ccn3n2)CC1)[C@H]1CCN(c2cccc3c2n(C)c(=O)n3C2CCC(=O)NC2=O)C[C@@H]1F (single isomer, unassigned) [I-292]
- DC50: 10 to 100 nM

Compound: Cn1c(=O)n(C2CCC(=O)NC2=O)c2cccc([C@@H]3CCN(C[C@H]4CC[C@H](n5cc6cc(NC(=O)c7cncc(C#N)c7)c(C(C)(C)O)cc6n5)CC4)CC3(F)F)c21 (stereo partly shown) [I-416]
- DC50: < 10 nM

Compound: Cc1nn(C2CCC(=O)NC2=O)c2cccc([C@H]3CCN(C[C@H]4CC[C@H](n5cc6cc(NC(=O)c7cncc(C(F)(F)F)n7)ncc6n5)CC4)C[C@@H]3F)c12 (single isomer, unassigned) [I-341]
- DC50: 10 to 100 nM

Compound: Cc1nn([C@@H]2CCC(=O)NC2=O)c2cccc(N3CC(CN4CCN(C[C@H]5CC[C@H](n6cc(NC(=O)c7cnn8ccc(N9C[C@H]%10C[C@@H]9CO%10)nc78)c(C(F)F)n6)CC5)CC4)C3)c12 [I-87]
- DC50: < 10 nM

Compound: COc1cc2nn([C@H]3CC[C@H](CN4CC[C@@H](c5cccc6c5n(C)c(=O)n6C5CCC(=O)NC5=O)[C@H](F)C4)CC3)cc2cc1NC(=O)c1cncc(C#N)c1 (single isomer, unassigned) [I-101]
- DC50: < 10 nM

Compound: CN(C[C@H]1CC[C@H](c2cn3cc(NC(=O)c4cncc(C(F)(F)F)n4)c(C(C)(C)O)cc3n2)CC1)[C@@H]1CCN(c2cccc3c2n(C)c(=O)n3C2CCC(=O)NC2=O)C[C@@H]1F (single isomer, unassigned) [I-344]
- DC50: < 10 nM

Compound: O=C1CCC(Nc2ccc(N3CC(CN4CCN(C[C@H]5CC[C@H](n6cc(NC(=O)c7cnn8ccc(N9C[C@H]%10C[C@@H]9CO%10)nc78)c(C(F)F)n6)CC5)CC4)C3)cc2Cl)C(=O)N1 (stereo partly shown) [I-16]
- DC50: 10 to 100 nM

Compound: CN(C[C@H]1CC[C@H](n2cc(NC(=O)c3cnn4cccnc34)c(C(F)F)n2)CC1)[C@@H]1CCN(c2cccc3c2n(C)c(=O)n3C2CCC(=O)NC2=O)CC1(F)F (stereo partly shown) [I-202]
- DC50: 10 to 100 nM

Compound: Cn1nc(C2CCC(=O)NC2=O)c2cccc([C@H]3CCN(C[C@H]4CC[C@H](n5cc6cc(NC(=O)c7cncc(C(F)(F)F)n7)ncc6n5)CC4)C[C@@H]3F)c21 (single isomer, unassigned) [I-359]
- DC50: 10 to 100 nM

Compound: Cn1c(=O)n(C2CCC(=O)NC2=O)c2cccc(N3CC(COC[C@H]4CC[C@H](n5cc6cc(NC(=O)c7cccc(C(F)(F)F)n7)ccc6n5)CC4)C3)c21 (stereo partly shown) [I-123]
- DC50: 10 to 100 nM

Compound: Cn1c(=O)n(C2CCC(=O)NC2=O)c2ccc([C@@H]3CCN(C[C@H]4CC[C@H](n5cc6cc(NC(=O)c7cncc(C(F)(F)F)n7)ccc6n5)CC4)C[C@H]3F)cc21 (single isomer, unassigned) [I-349]
- DC50: > 200 nM

Compound: O=C1CC[C@H](c2ccc(N3CC(N4CCN([C@H]5CC[C@H](n6cc(NC(=O)c7cnn8ccc(N9C[C@H]%10C[C@@H]9CO%10)nc78)c(C(F)F)n6)CC5)CC4)C3)cc2Cl)C(=O)N1 [I-124]
- DC50: < 10 nM

Compound: C[C@H]1CN(c2ccn3ncc(C(=O)Nc4cn([C@H]5CC[C@H](CN(C)C6CCN(c7cccc8c7n(C)c(=O)n8C7CCC(=O)NC7=O)C[C@@H]6F)CC5)nc4C(F)F)c3n2)CCO1 (stereo partly shown) [I-26]
- DC50: < 10 nM

Compound: CN(C[C@H]1CC[C@H](c2nc3cc(C(C)(C)O)c(NC(=O)c4cncc(C(F)(F)F)n4)cc3s2)CC1)[C@@H]1CCN(c2cccc3c2n(C)c(=O)n3C2CCC(=O)NC2=O)C[C@H]1F (single isomer, unassigned) [I-300]
- DC50: < 10 nM

Compound: COc1cc2nc([C@H]3CC[C@H](CN4CC[C@@H](c5cccc6c5n(C)c(=O)n6C5CCC(=O)NC5=O)[C@H](F)C4)CC3)sc2cc1NC(=O)c1cncc(C(F)(F)F)n1 (stereo partly shown) [I-174]
- DC50: 10 to 100 nM

Compound: CN(C[C@H]1CC[C@H](c2cc3cc(NC(=O)c4cncc(C(F)(F)F)n4)ccn3n2)CC1)[C@H]1CCN(c2cccc3c2n(C)c(=O)n3C2CCC(=O)NC2=O)C[C@H]1F (single isomer, unassigned) [I-212]
- DC50: 10 to 100 nM

Compound: CN(C[C@H]1CC[C@H](n2cc3cc(NC(=O)c4cccc(C(F)(F)F)n4)c(C#N)cc3n2)CC1)[C@@H]1CCN(c2cccc3c2n(C)c(=O)n3C2CCC(=O)NC2=O)C[C@@H]1F (stereo partly shown) [I-10]
- DC50: < 10 nM
